According to publication PMC8691691 (ACS Chemical Neuroscience, 2021):
Substitutions are numbered along the chain they refer to. Like-named read-outs stand apart in the source and are kept apart here.

Tests used:
Assay in all cases: [3H]glycine transport by GlyT2 mutant in COS7 cells
Format in all cases: cell-based
[1] = target: T1, GlyT2 I285F mutant (Rattus norvegicus, UniProt P58295, I285F)
T1 construct: expressed in transfected cells; host or cells: COS7
T1 sequence (P58295 1-799 I285F): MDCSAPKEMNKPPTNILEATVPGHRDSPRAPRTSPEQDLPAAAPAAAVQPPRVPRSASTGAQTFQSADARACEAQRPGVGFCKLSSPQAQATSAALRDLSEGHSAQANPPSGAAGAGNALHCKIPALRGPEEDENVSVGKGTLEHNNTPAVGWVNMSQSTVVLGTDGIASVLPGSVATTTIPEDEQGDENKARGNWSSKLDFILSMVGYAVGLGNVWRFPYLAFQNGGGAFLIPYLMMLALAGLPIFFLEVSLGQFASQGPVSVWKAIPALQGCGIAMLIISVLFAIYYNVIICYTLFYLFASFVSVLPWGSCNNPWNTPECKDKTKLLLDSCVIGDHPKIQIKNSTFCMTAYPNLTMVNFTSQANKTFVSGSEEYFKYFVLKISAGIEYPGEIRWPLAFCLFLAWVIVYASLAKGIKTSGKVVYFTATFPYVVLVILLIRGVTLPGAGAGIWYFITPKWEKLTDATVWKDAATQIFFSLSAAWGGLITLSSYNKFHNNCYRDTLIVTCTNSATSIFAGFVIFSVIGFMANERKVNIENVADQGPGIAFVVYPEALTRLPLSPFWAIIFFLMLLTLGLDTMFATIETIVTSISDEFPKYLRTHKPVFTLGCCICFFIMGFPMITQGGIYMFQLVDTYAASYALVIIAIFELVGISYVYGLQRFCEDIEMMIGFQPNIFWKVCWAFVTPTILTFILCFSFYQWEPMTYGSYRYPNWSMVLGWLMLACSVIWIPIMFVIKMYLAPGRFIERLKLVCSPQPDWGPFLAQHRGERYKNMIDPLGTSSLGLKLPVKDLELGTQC
Description: (§1) To validate the predicted interactions between the inhibitors and GlyT2, we used systematic site-directed mutagenesis to construct substitution mutants of the potential residues involved in ligand binding. […] The GlyT2 residues predicted to interact with the inhibitors through its side chain were replaced by amino acids expected to force the loss of the interaction. In the cases where the interaction occurred through the backbone, the inserted amino acid sought to alter the disposition of the substituted residue to lose the coordination.
(§2) Substitution mutants were generated with the QuikChange II Site-Directed Mutagenesis kit (Agilent Technologies, Santa Clara, CA, USA), using rGlyT2 or rGlyT1 subcloned in pCDNA3.[47] The complete coding region of all of the constructs was sequenced to verify that only the desired mutation had been introduced. […] COS7 cells were grown and transfected using Turbofect Transfection Reagent (Thermo Fisher Scientific, Waltham, MA, USA), following the manufacturer’s protocol (2 μL reagent/μg of DNA). Cells were incubated for 48 h at 37 °C until used.
(§3) At the end of the desired time (usually 10 min), reactions were washed and terminated by aspiration. […] A nonlinear curve fitting method was used to obtain IC50 values using Graphpad Prism software, version 6.0, Graphpad, San Diego, CA, USA.

[2] = target: T2, GlyT2 W217F mutant (Rattus norvegicus, UniProt P58295, W217F)
T2 construct: expressed in transfected cells; host or cells: COS7
T2 sequence (P58295 1-799 W217F): T1 sequence (P58295 1-799 I285F) with W217F, F285I
Description: as §1, §2, §3

[3] = target: T3, GlyT2 A210C mutant (Rattus norvegicus, UniProt P58295, A210C)
T3 construct: expressed in transfected cells; host or cells: COS7
T3 sequence (P58295 1-799 A210C): T1 sequence (P58295 1-799 I285F) with A210C, F285I
Description: as §1, §2, §3

IC50 ([1]; read-out: IC50 (Table S1)) | IC50 ([2]; read-out: IC50 (Table S1)) | IC50 ([3]; read-out: IC50 (Table S1)) | Compound | IC50 [1] | IC50 [2] | effect of mutation on inhibition of glycine transport ([2]; W217F, 1 μM inhibitor, 20 μM glycine) | IC50 [3]
0.091 ± 0.006 µM | 0.023 ± 0.005 µM | 0.023 ± 0.003 µM | N[C@@H](COC(c1cccc(F)c1)c1ccccc1OCc1ccccc1)C(=O)O (stereo partly shown) [ALX1393] | – | – | – | –
– | – | – | COc1cc(C(=O)NCC2(N(C)C)CCCC2)cc(OC)c1OCc1ccccc1 [ORG25543, N-[[1-(dimethylamino)cyclopentyl]methyl]-3,5-dimethoxy-4-(phenylmethoxy)benzamide] | 0.015 ± 0.004 µM | 0.093 ± 0.007 µM | selectively reduced ORG25543 inhibition | 0.02 ± 0.012 µM
